The results in this text go back to ChEMBL document CHEMBL5131460, “Glenthenamines A-F: Enamine Pyranonaphthoquinones from the Australian Pasture Plant Derived Streptomyces sp. CMB-PB042” (J Nat Prod, 2022).

The target in data set [1] is ATP-dependent translocase ABCB1 (Homo sapiens, UniProt P08183). As to the kind of experiment: Reversal of P-glycoprotein mediated doxorubicin resistance in human SW620/AD300 cells overexpressing P-gp assessed as gain in sensitivity against doxorubicin at 2.5 uM incubated for 52 hrs by MTT assay. In kind it is cell-based. The following applies: sw620/ad300, 52 h.
Sequence of ATP-dependent translocase ABCB1 (P08183 whole entry): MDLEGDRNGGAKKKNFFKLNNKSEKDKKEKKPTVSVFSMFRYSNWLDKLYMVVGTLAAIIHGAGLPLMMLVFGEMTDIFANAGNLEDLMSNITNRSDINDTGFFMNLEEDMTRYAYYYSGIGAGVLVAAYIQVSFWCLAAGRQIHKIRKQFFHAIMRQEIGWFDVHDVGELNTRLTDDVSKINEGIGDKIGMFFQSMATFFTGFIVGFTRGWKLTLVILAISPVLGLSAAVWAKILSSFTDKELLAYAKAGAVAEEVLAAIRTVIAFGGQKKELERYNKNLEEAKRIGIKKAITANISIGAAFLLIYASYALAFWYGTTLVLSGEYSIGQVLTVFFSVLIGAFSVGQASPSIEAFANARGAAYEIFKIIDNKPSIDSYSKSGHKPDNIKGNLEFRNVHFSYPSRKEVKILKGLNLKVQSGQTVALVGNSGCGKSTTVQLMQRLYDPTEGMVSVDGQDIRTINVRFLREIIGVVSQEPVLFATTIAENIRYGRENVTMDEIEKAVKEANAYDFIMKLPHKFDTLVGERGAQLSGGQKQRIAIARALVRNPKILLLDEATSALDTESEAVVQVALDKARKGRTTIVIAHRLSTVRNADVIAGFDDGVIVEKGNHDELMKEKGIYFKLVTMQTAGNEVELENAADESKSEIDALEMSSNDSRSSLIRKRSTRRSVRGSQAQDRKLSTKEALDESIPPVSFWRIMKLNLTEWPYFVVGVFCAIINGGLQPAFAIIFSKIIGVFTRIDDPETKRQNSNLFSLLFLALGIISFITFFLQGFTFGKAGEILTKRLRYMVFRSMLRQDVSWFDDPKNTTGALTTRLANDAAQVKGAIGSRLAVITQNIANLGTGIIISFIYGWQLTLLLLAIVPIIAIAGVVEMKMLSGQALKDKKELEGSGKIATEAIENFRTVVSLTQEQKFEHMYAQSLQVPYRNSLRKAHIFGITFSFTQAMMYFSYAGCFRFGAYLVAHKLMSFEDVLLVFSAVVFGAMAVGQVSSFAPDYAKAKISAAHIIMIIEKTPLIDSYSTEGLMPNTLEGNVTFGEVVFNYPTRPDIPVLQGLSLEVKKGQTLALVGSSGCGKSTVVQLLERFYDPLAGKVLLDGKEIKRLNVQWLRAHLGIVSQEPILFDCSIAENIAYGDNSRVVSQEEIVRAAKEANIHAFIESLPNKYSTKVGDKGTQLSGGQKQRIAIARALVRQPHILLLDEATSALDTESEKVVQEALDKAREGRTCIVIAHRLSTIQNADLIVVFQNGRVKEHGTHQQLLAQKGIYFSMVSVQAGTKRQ
A further data set relates to NCI-H460. Kind of data set: Cytotoxicity against human NCI-H460 cells incubated for 48 hrs by MTT assay. It counts as functional, cell-based. To be noted: NCI-H460, 48 h.
The next data set concerns Candida albicans. Kind of data set: Antimicrobial activity against Candida albicans ATCC 10231 incubated for 16 hrs by microplate reader method. It counts as functional, organism-based. To be noted: ATCC 10231, 16 h.
For a further data set, the system named is SW620/AD300. Kind of data set: Cytotoxicity against human SW620/AD300 cells incubated for 48 hrs by MTT assay. It counts as functional, cell-based. The following applies: SW620/AD300, 48 h.

Broadly, the IC50 is the point on the concentration scale where inhibition reaches its midpoint. A lower IC50 goes with greater potency. Turning to `COC(=O)C[C@H]1Cc2c(c(O)c3c4c(c5n(c24)[C@H]([C@@H](C)O)CC5)C=CC3=O)[C@H](C)O1`, the Activity in data set [1] was 45%. Also, the IC50 in the data set with NCI-H460, in the data set with Candida albicans and with SW620/AD300 was more than 30 µM each time.

For `C[C@@H]1OC(CC(=O)O)=Cc2c1c(O)c1c3c(c4n(c23)[C@H]([C@@H](C)O)CC4)C=CC1=O`, the Activity in data set [1] stood at 45%. The IC50 in the data set with NCI-H460, in the data set with Candida albicans and with SW620/AD300 was more than 30 µM each time.

As to `C[C@@H]1O[C@@H](CC(=O)O)C(=O)c2c1c(O)c1c3c(c4n(c23)[C@H]([C@@H](C)O)CC4)C=CC1=O`, the Activity in data set [1] was determined as 45%. The IC50 in the data set on NCI-H460, in the data set on Candida albicans and in the data set with SW620/AD300 was more than 30 µM each time.

With `C[C@H]1O[C@]2(C)CC(=O)O[C@]2(C)c2c1c(O)c1c3c(c4n(c23)[C@@H]([C@@H](C)O)CC4)C=CC1=O`, the IC50 in the data set on NCI-H460, in the data set with Candida albicans and in the data set on SW620/AD300 was more than 30 µM in each case.

With `C[C@@H](O)[C@@H]1CCc2c3c4c(c(O)c(O)c(C[C@@H](O)CC(=O)O)c4n21)C(=O)C=C3`, the IC50 with NCI-H460, in the data set on Candida albicans and with SW620/AD300 was more than 30 µM each time.

On to `C[C@H]1OC(CC(=O)O)=Cc2c1c(O)c1c3c(c4n(c23)[C@H]([C@@H](C)O)CC4)C=CC1=O`, for which the Activity in data set [1] is on record as 45%. For the same molecule, the IC50 with NCI-H460, with Candida albicans and in the data set with SW620/AD300 was more than 30 µM in each case.

Regarding `C[C@H]1Oc2c(O)c3c4c(c5n(c4c2C[C@H](CC(=O)O)O1)[C@H]([C@@H](C)O)CC5)C=CC3=O`, the IC50 in the data set with NCI-H460, in the data set with Candida albicans and with SW620/AD300 was more than 30 µM throughout.

As to `C[C@H]1O[C@H](CC(=O)O)Cc2c1c(O)c1c3c(c4n(c23)[C@@H]([C@@H](C)O)CC4)C=CC1=O`, in data set [1], the Activity came out at 45%. The IC50 in the data set with NCI-H460, with Candida albicans and in the data set with SW620/AD300 was more than 30 µM each time.
